Experimental data as given in patent publication US11338007B2, “Combination formulation of three antiviral compounds” (priority 2016, dated 2022).

Key:
[1] = Aqueous solubility of voxilaprevir Form VIII relative to Form VI; format: physicochemical
[2] = Relative bioavailability of voxilaprevir amorphous free acid tablets vs Form VI tablets, fasted and fed, healthy subjects (Table 3); format: in vivo, human
Excerpt: Accordingly, a spray dried dispersion of voxilaprevir in the amorphous free acid form was selected for incorporation into the tablet formulation.

[3] = Physical stability of tablets spiked with crystalline voxilaprevir Form VIII and Form X (Tables 22, 23); format: physicochemical; details: in tablets in the presence of pre-existing crystalline voxilaprevir
Procedure: For each of the impact studies, the sofosbuvir/velpatasvir SSD/voxilaprevir SSD tablets were packaged in a designated commercial packaging configuration (28-count, 100 mL HPDE bottle, coil, 1 g desiccant), and stored for 12 weeks at 25° C./60% RH and 40° C./75% RH. Tablets were also packaged in open containers (28-count, 100 mL HPDE bottle without cap) and stored for 4 weeks at 40° C./75% RH and for 1 week at 50° C./92% RH.
The impact of crystalline voxilaprevir Form VIII and Form X seeds on the physical stability and dissolution of sofosbuvir/velpatasvir SSD/voxilaprevir SSD tablets was evaluated (Tables 22 and 23). As described in Table 22, sofosbuvir/velpatasvir SSD/voxilaprevir SSD tablets Lots A and B were spiked with 5 and 10% w/w Form VIII (% w/w with respect to total voxilaprevir), respectively. Sofosbuvir/velpatasvir SSD/voxilaprevir SSD tablets Lots C and D, as described in Table 23, were spiked with 10 and 20% w/w Form X (% w/w with respect to total voxilaprevir), respectively.

[4] = 100 mg tablets, healthy subjects

| Compound | aqueous solubility, less than that of crystalline Form VI [1] | higher Cmax compared to Form VI tablets (2×50 mg) [2, 4] [%] | higher exposure (AUC) compared to Form VI tablets (2×50 mg) [2, 4] | Cmax ([2]; single dose 100 mg, healthy subjects, fed (with moderate food)) [ng/mL] | Geometric Least Square Ratio Amorphous Free Acid/Form VI GMR, AUCinf ([2]; single dose, fasted) | Geometric Least Square Ratio Amorphous Free Acid/Form VI GMR, Cmax ([2]; single dose, fasted) | tendency to crystallize [3] |
| --- | --- | --- | --- | --- | --- | --- | --- |
| CC[C@@H]1[C@@H]2CN(C(=O)[C@H](C(C)(C)C)NC(=O)O[C@@H]3C[C@H]3CCCCC(F)(F)c3nc4ccc(OC)cc4nc3O2)[C@@H]1C(=O)N[C@]1(C(=O)NS(=O)(=O)C2(C)CC2)C[C@H]1C(F)F [Form VIII, voxilaprevir] | approximately 50% | – | – | – | – | – | – |
| CC[C@@H]1[C@@H]2CN(C(=O)[C@H](C(C)(C)C)NC(=O)O[C@@H]3C[C@H]3CCCCC(F)(F)c3nc4ccc(OC)cc4nc3O2)[C@@H]1C(=O)N[C@]1(C(=O)NS(=O)(=O)C2(C)CC2)C[C@H]1C(F)F [Amorphous Free Acid, voxilaprevir] | – | ~43 | approximately 9% | 44.2 | 1.09 | 1.43 | no tendency to crystallize |
| COC[C@H]1C[C@@H](c2ncc(-c3ccc4c(c3)COc3cc5c(ccc6nc([C@@H]7CC[C@H](C)N7C(=O)[C@@H](NC(=O)OC)C(C)C)[nH]c65)cc3-4)[nH]2)N(C(=O)[C@H](NC(=O)OC)c2ccccc2)C1 [amorphous velpatasvir free base, velpatasvir] | – | – | – | – | – | – | no tendency to crystallize |
